Reference: patent US10676466B2, “Crystalline hydrate of the compound (2S,3R)-isopropyl 2-(((2-(1,5-dimethyl-6-oxo-1,6-dihydropyridin-3-yl)-1-((tetrahydro-2H-pyran-4-yl)methyl)-1H-benzo[D]imidazol-5-yl)methyl)amino)-3-hydroxybutanoate edisylate” (GLAXOSMITHKLINE INTELLECTUAL PROPERTY DEVELOPMENT LIMITED, priority 2016, dated 2020)
Counter-ions that a name gives are not always drawn. One block for each compound: values may come before it.

Assays:
[1] = molecular target: T1, recombinant human CES1 (Homo sapiens, UniProt P23141); experiment: Hydrolysis by hCES-1 (HPLC assay); type: in vitro ADME; conditions: 50 μM test compound, 50 nM CES1, 20° C., pH 7.5, n=2
T1 construct: Recombinant human CES1 (Gly18-Glu563, bearing a polyhistidine tag at the C-terminus); purchased Novoprotein, Summit, N.J., USA C450; host or cells: human cells
T1 sequence (P23141 18-563): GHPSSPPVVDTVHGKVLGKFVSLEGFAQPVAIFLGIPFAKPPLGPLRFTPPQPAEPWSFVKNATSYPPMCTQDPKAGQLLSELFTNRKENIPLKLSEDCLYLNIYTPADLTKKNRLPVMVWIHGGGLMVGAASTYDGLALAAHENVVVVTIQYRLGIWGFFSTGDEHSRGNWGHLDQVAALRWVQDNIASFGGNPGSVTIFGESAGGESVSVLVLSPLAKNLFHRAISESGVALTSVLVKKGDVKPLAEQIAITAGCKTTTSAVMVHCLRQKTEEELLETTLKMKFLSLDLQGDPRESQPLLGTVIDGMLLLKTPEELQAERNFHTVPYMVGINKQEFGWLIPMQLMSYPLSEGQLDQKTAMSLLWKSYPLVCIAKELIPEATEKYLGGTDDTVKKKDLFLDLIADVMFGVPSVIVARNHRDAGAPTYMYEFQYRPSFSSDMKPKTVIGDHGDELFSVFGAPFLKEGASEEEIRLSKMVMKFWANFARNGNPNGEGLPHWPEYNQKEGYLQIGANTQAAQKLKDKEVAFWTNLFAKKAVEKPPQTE
Method: Hydrolysis of ESM-containing BET inhibitors by carboxylesterase 1 (CES1) is one aspect of delivering a targeted molecule. Rates of hydrolysis of certain compounds of the invention by recombinant human CES1 were determined using an HPLC assay. Recombinant human CES1 (Gly18-Glu563, bearing a polyhistidine tag at the C-terminus) expressed in human cells and purified to homogeneity was obtained from Novoprotein, Summit, N.J., USA (catalogue number C450). Reactions were run in 384 well plates at 20° C. in a buffer of 50 mM sodium phosphate pH 7.5/100 mM NaCl. Assays used a fixed concentration of test compound (50 μM) and CES1 (50 nM) and a time course of the reaction was obtained by stopping samples at increasing times by addition of formic acid to lower the pH. Stopped samples were subsequently analysed by HPLC to resolve product acid from unhydrolysed ester, using a 50×2 mm C18 […] reversed-phase column (Phenomenex Gemini) at a flow rate of 1 ml/min using a gradient of acetonitrile in water, containing 0.1% formic acid. Chromatogaphy was monitored using absorbance at 300 nm wavelength. The % of product formed was determined using integrated peak areas and used to determine the initial rate of the reaction. […]

[2] = test system: MCP-1 production; experiment: LPS induced MCP-1 production from human whole blood; type: cell-based; conditions: LPS 200 ng/mL, 18-24 hours
Method: Activation of monocytic cells by agonists of toll-like receptors such as bacterial lipopolysaccharide (LPS) results in production of key inflammatory mediators including MCP-1. Such pathways are widely considered to be central to the pathophysiology of a range of auto-immune and inflammatory disorders. Blood is collected in a tube containing Sodium heparin (Leo Pharmaceuticals) (10 units of heparin/mL of blood). 96-well compound plates containing 1 μL test sample in 100% DMSO were prepared (two replicates on account of donor variability). 130 μL of whole blood was dispensed into each well of the 96-well compound plates and incubated for 30 min at 37° C., 5% CO2. 10 μL of lipopolysaccharide (from Salmonella typhosa; L6386) made up in PBS (200 ng/mL final assay concentration) was added to each well of the compound plates. The plates were then placed in the humidified primary cell incubator for 18-24 hours at 37° C., 5% CO2. 140 μL of PBS was added to all wells of the compound plates containing blood. The plates were then sealed and centrifuged for 10 mins at 2500 rpm. […] 150 μL of 2×MSD Read Buffer T (stock 4×MSD Read Buffer T was diluted 50:50 with de-ionised water) was then added to each well and the plates read on the MSD Sector Imager 6000. Concentration response curves for each compound were generated from the data and an pIC50 value was calculated.

[3] = test system: Bromodomains BRD2, BRD3, BRD4 and BRDT; experiment: Fluoroligand binding to mutated vs non-mutated bromodomain (TR-FRET); design: species or system Human; conditions: single residue mutations in the acetyl lysine binding pocket
Method: The binding of compounds of the invention to Bromodomains BRD2, BRD3, BRD4 and BRDT was assessed using mutated proteins to detect differential binding to either Binding Domain 1 (BD1) or Binding Domain 2 (BD2) on the bromodomain. These single residue mutations in the acetyl lysine binding pocket greatly lower the affinity of the fluoroligand (Reference Compound X) for the mutated domain (>1000 fold selective for the non-mutated domain). Therefore in the final assay conditions, binding of the fluoroligand to the mutated domain cannot be detected and subsequently the assay is suitable to determine the binding of compounds to the single non-mutated bromodomain.
Recombinant Human Bromodomains [(BRD2 (1-473) (Y113A) and (Y386A), BRD3 (1-435) (Y73A) and (Y348A) BRD4 (1-477) (Y97A) and (Y390A) and BRDT (1-397) (Y66A) and (Y309A)] were expressed in E. coli cells (in pET15b vector for BRD2/3/4 and in pET28a vector for BRDT) with a 6-His tag at the N-terminal. The His-tagged Bromodomain pellet was resuspended in 50 mM HEPES (pH7.5), 300 mM NaCl, 10 mM imidazole & 1 μl/ml protease inhibitor cocktail and extracted from the E. coli cells using sonication and purified using a nickel sepharose high performance column, the proteins were washed and then eluted with a linear gradient of 0-500 mM imidazole with buffer 50 mM HEPES (pH7.5), 150 mM NaCl, 500 mM imidazole, over 20 column volumes. […]

melting point: ~ 223 °C
SMILES: Cc1cc(-c2nc3cc(CN[C@H](C(=O)OC(C)C)[C@@H](C)O)ccc3n2CC2CCOCC2)cn(C)c1=O (as salt: edisylate) (hydrate or solvate) [Example 1, (2S,3R)-Isopropyl 2-(((2-(1,5-dimethyl-6-oxo-1,6-dihydropyridin-3-yl)-1-((tetrahydro-2H-pyran-4-yl)methyl)-1H-benzo[d]imidazol-5-yl)methyl)amino)-3-hydroxybutanoate]

mean rate of hydrolysis (specific activity of CES1) [1]: 0.21 μM/min/μM
IC50 ([2]; Homo sapiens, read-out: mean pIC50, LPS induced MCP-1 production (converted)): 25.1 nM
SMILES: Cc1cc(-c2nc3cc(CN[C@H](C(=O)OC(C)C)[C@@H](C)O)ccc3n2CC2CCOCC2)cn(C)c1=O [Example 1, (2S,3R)-Isopropyl 2-(((2-(1,5-dimethyl-6-oxo-1,6-dihydropyridin-3-yl)-1-((tetrahydro-2H-pyran-4-yl)methyl)-1H-benzo[d]imidazol-5-yl)methyl)amino)-3-hydroxybutanoate]

SMILES: COc1ccc2c(c1)C(c1ccc(Cl)cc1)=N[C@@H](CC(=O)NCCCCCNC(=O)CCCCCC1(C)/C(=C/C=C/C=C/C3=[N+](CCCCS(=O)(=O)O)c4ccc(S(=O)(=O)O)cc4C3(C)C)N(CCCCS(=O)(=O)[O-])c3ccc(S(=O)(=O)O)cc31)c1nnc(C)n1-2 (some centres unmarked) [Reference Compound X]
selectivity for the non-mutated domain over the mutated domain [3]: > 1000 fold

mean pIC50, LPS induced MCP-1 production [2]: 7.5
SMILES: Cc1cc(-c2nc3cc(CN[C@H](C(=O)OC(C)C)[C@@H](C)O)ccc3n2CC2CCOCC2)cn(C)c1=O [edisylate salt of Example 1, Edisylate Salt of (2S,3R)-Isopropyl 2-(((2-(1,5-dimethyl-6-oxo-1,6-dihydropyridin-3-yl)-1-((tetrahydro-2H-pyran-4-yl)methyl)-1H-benzo[d]imidazol-5-yl)methyl)amino)-3-hydroxybutanoate]
